Data published in US9211310B2, “Use of a Chinese medicine composition in preparing medicaments for treating secondary prevention of myocardial infarction” (TASLY PHARMACEUTICAL GROUP CO., LTD, priority 2010, dated 2015).

System: patients after acute myocardial infarction
Test: Life quality, Seattle Angina Questionnaire (SAQ), same clinical trial
Assay type: in vivo, human
Conditions: PP
From the text: 3508 patients who were in accordance with the diagnostic standards of AMI for 28 days to 2 years and differentiated as Qi deficiency and blood stagnation syndrome by TCM were studied. 0.5 g Chinese medicine composition prepared by the method of EXAMPLE 1 (Coded as QSYQ) was administrated half an hour after meal, 3 times per day.
There were 19 questions in the Seattle angina questionnaire (SAQ), including 5 parts: physical limitation (PL), anginal stability (AS), anginal frequency (AF), treatment satisfaction (TS) and disease perception (DP). After being given necessary explanation by doctors, the questions were answered independently by patients.
They included the overall survival time, angina pectoris score, TCM symptom score and life quality score, where angina pectoris score, TCM symptom score and life quality score were evaluated at randomization, in 1st, 3rd, 6th, 9th, 12th month after treatment and 18th month after follow-up.
All evaluation results of SAQ were described during the period of observation, and Wilcoxon rank sum test was used for inter-group comparison.
The evaluation results in the SAQ were depicted in different observations, and inter-group comparison was tested by Wilcoxon Rank-sum test.

## CC(=O)Oc1ccccc1C(=O)O [Control group, aspirine]
Follow-up
  SAQ Question 1-4: Not limited, percent of patients: (53.63%)
  SAQ Question 1-4: Other reasons, number of patients: 10
  SAQ Question 1-4: Other reasons, percent of patients: (0.71%)
  SAQ Question 1-4: Severely limited, number of patients: 5
  SAQ Question 1-4: Severely limited, percent of patients: (0.36%)
  SAQ Question 1-4: Slightly limited, number of patients: 428
  SAQ Question 1-4: Slightly limited, percent of patients: (30.44%)
  SAQ Question 1-5: Mildly limited, number of patients: 181
  SAQ Question 1-5: Mildly limited, percent of patients: (12.87%)
  SAQ Question 1-5: Moderately limited, number of patients: 57
  SAQ Question 1-5: Moderately limited, percent of patients: (4.05%)
  SAQ Question 1-5: Not limited, number of patients: 765
  SAQ Question 1-5: Not limited, percent of patients: (54.41%)
  SAQ Question 1-5: Other reasons, number of patients: 8
  SAQ Question 1-5: Other reasons, percent of patients: (0.57%)
  SAQ Question 1-5: Severely limited, number of patients: 9
  SAQ Question 1-5: Severely limited, percent of patients: (0.64%)
  SAQ Question 1-5: Slightly limited, number of patients: 386
  SAQ Question 1-5: Slightly limited, percent of patients: (27.45%)
  SAQ Question 1-9: Mildly limited, % of cases: (20.25%)
  SAQ Question 1-9: Mildly limited, cases: 276
  SAQ Question 1-9: Moderately limited, % of cases: (21.13%)
  SAQ Question 1-9: Moderately limited, cases: 288
  SAQ Question 1-9: Not limited, % of cases: (6.09%)
  SAQ Question 1-9: Not limited, cases: 83
  SAQ Question 1-9: Other reasons, % of cases: (4.77%)
  SAQ Question 1-9: Other reasons, cases: 65
  SAQ Question 1-9: Severely-limited, % of cases: (27.29%)
  SAQ Question 1-9: Severely-limited, cases: 372
  SAQ Question 1-9: Slightly limited, % of cases: (20.47%)
  SAQ Question 1-9: Slightly limited, cases: 279
1 month after treatment
  8th question: Dissatisfied, patients (%): (0.13%)
  8th question: Highly satisfied, patients (%): (17.41%)
  8th question: Mostly dissatisfied, patients (%): (4.23%)
  8th question: Mostly satisfied, patients (%): (48.99%)
  8th question: Partly satisfied, patients (%): (29.23%)
  9th question: Few, patients (%): (25.86%)
  9th question: Mild, patients (%): (35.93%)
  9th question: Moderate, patients (%): (18.94%)
  9th question: Severe, patients (%): (2.01%)
  9th question: Uneffective, patients (%): (17.26%)
  10th question: Dissatisfied, patients (%): (22.24%)
  10th question: Highly satisfied, patients (%): (4.23%)
  10th question: Mostly dissatisfied, patients (%): (23.12%)
  10th question: Mostly satisfied, patients (%): (19.83%)
  10th question: Partly satisfied, patients (%): (30.58%)
  11th question: Continuously worried, patients (%): (6.04%)
  11th question: No worried, patients (%): (4.84%)
  11th question: Occasionally worried, patients (%): (41.24%)
  11th question: Often worried, patients (%): (21.76%)
  11th question: Seldom worried, patients (%): (26.12%)
  SAQ 4th question, 1-2 times per week: % of patients: (17.41%)
  SAQ 4th question, 1-2 times per week: number of patients: 259
  SAQ 4th question, 1-3 times per day: % of patients: (6.52%)
  SAQ 4th question, 1-3 times per day: number of patients: 97
  SAQ 4th question, <1 time per week: % of patients: (9.07%)
  SAQ 4th question, <1 time per week: number of patients: 135
  SAQ 4th question, Not used: % of patients: (53.23%)
  SAQ 4th question, Not used: number of patients: 792
  SAQ 4th question, ≧3 times per week: % of patients: (13.71%)
  SAQ 4th question, ≧3 times per week: number of patients: 204
  SAQ 4th question, ≧4 times per day: % of patients: (0.07%)
  SAQ 4th question, ≧4 times per day: number of patients: 1
  SAQ 5th question, Few: % of patients: (21.67%)
  SAQ 5th question, Few: number of patients: 322
  SAQ 5th question, Mild: % of patients: (28.94%)
  SAQ 5th question, Mild: number of patients: 430
  SAQ 5th question, Moderate: % of patients: (18.24%)
  SAQ 5th question, Moderate: number of patients: 271
  SAQ 5th question, None: % of patients: (25.44%)
  SAQ 5th question, None: number of patients: 378
  SAQ 5th question, Not medicated by doctors: % of patients: (3.57%)
  SAQ 5th question, Not medicated by doctors: number of patients: 53
  SAQ 5th question, Severe: % of patients: (2.15%)
  SAQ 5th question, Severe: number of patients: 32
  SAQ 6th question, Dissatisfied: % of patients: (0.20%)
  SAQ 6th question, Dissatisfied: number of patients: 3
